Values quoted from earlier work in article PMC6222509, “Dibasic Derivatives of Phenylcarbamic Acid against Mycobacterial Strains: Old Drugs and New Tricks?” (Molecules : A Journal of Synthetic Chemistry and Natural …, 2018).

Test system: guinea pig
Design: method as in PMID 8402965
Settings: intradermal, 0.02 M procaine as standard; cited from earlier work

For `CCCCCOc1cccc(NC(=O)OC(CN(CCC)CCC)CN2CCCC2)c1.Cl.Cl` (stereo not shown) [1f, 1-[2-[({[3-(pentyloxy)phenyl]amino}carbonyl)oxy]-3-(dipropylammonio)propyl]-pyrrolidinium dichloride], the “Ui, index of relative infiltration local anesthetic efficiency” value is given as 250.
